Like-named read-outs stand apart in the source and are kept apart here.
Key:
[1] = test system: Aortic smooth muscle (HASMC); experiment: Induction of early apoptosis by CoQ10; format: cell-based; conditions: Heart: Aortic smooth muscle (HASMC)
Protocol: (§1) The effects of Coenzyme Q10 treatment on a variety of oncogenic and normal cell lines were examined and compared. The sensitivity of cells to Coenzyme Q10 was assessed by monitoring induction of apoptosis. CoQ10 treatment of cells was carried out as described in detail below in the Materials and Methods. Induction of apoptosis was assessed in the treated cells by monitoring indicators of early apoptosis (e.g., Bcl-2 expression, caspase activation and by using annexin V assays) as described below. From these studies, the minimal CoQ10 dosage, e.g., concentration of CoQ10 and time of treatment, required to induce apoptosis in the panel of cell lines was determined.
(§2) Cells were cultured in T-75 flasks with relevant medium supplemented with 10% Fetal Bovine Serum (FBS), 1% PSA (penicillin, streptomycin, amphotericin B) (Invitrogen and Cellgro) in a 37° C. incubator with 5% CO2 levels until 70-80% confluence was reached. To harvest cells for treatment, flasks were primed with 1 mL Trypsin, aspirated, trypsinized with an additional 3 mL, and incubated at 37° C. for 3-5 minutes. Cells were then neutralized with an equal volume of media and the subsequent solution was centrifuged at […] for 8 minutes. The supernatant was aspirated and the cells were resuspended with 8.5 ml of media. A mixture of 500 ul of the resuspension and 9.5 ml of […] was read twice by a coulter counter and the appropriate number of cells to be seeded into each dish was determined. Control and concentration ranging from 0-200 μM groups were examined in triplicate. From a 500 μM CoQ-10 stock solution, serial dilutions were performed to achieve desired experimental concentration in appropriate dishes. Dishes were incubated in a 37° C. incubator with 5% CO2 levels for 0-72 hours depending on cell type and experimental protocol.
(§3) The volume of sample to load per well was determined using the raw mean concentration of protein obtained from the BCA protein assay. Approximately 30-60 μg of protein were loaded for each treatment time point. Proteins were run in triplicate on 12% Tris-HCl ready gels (Bio-Rad) or hand cast gels in 1× running buffer at 85 and 100 volts. Proteins were then transferred onto nitrocellulose paper for an hour at 100 volts, and blocked for another hour in a 5% milk solution. Membranes were placed in primary antibody (1 uL Ab:1000 uL TBST) (Cell Signaling) overnight at […] The following day, membranes were washed three times for ten minutes each with Tris-Buffered Saline Tween-20 (TBST), and secondary antibody (anti-rabbit; 1 uL Ab: 1000 uL TBST) was applied for an hour at […] Membranes were washed again three times for ten minutes with TBST and chemoluminescence using Pico or Femto substrate was completed (Pierce). Membranes were then developed at time intervals that produced the best visual results. After developing, membranes were kept in TBST at […] until Actin levels could be measured.
(§4) Cells were washed twice in PBS10× and resuspended in Binding Buffer (0.1 M HEPES, pH 7.4; 1.4 M NaCl; 25 mM CaCl2). Samples of 100 μl were added to a culture tube with 5 μl of annexin-PE dye or […]. The cells were mixed and incubated without light at room temperature for 15 minutes. After which, 400 μl of 1×Binding Buffer was added to each sample and they were subjected to analysis by flow cytometry.

MCF-7 = experiment: Induction of early apoptosis by CoQ10; format: cell-based
Protocol: as §1, §2, §3, §4

NCIES0808 cells [2] = experiment: Real-time PCR, Human Diabetes Arrays; format: cell-based
Protocol: (§5) NCIES0808 cells were plated in T25 flasks at a density of 2×10^6 cells per flask in media or media containing 50 uM/100 uM Q10. All treatment groups were run in triplicate. Cells were harvested at 0, 3, 6, 24 or 48 hours. Pictures were taken to examine cell morphology before harvesting. To harvest cells, media was removed but saved to be able to collect floating apoptotic cells. Cells were trypsinized with 1 ml of trypsin-EDTA and the enzyme action was stopped by addition of 4 ml complete media. Trypsinized cells were added to the appropriate tube containing the media with dead cells. Cells were centrifuged at 1200 rpm for 5 minutes and media was aspirated leaving behind the cell pellet for RNA extraction. RNA isolation from cell pellets was carried out with the RNeasy kit (Qiagen, Valencia Calif.) according to the manufacturer's instructions. RNA samples were eluted from spin columns in water; absorbance was measured at 260 nm, 230 nm and 280 nm. The purity of RNA was evaluated by the 260/230 and 280/230 ratios. The concentration of RNA in all of the samples was calculated from absorbance values at […]. First strand cDNA was synthesized from 0.5 ug of all RNA samples using instructions provided with the First strand kit (SABiosciences, Frederick, Md.). The synthesized first strand from a sample was dispensed equally in a PCR array plate containing primers within a pathway (Angiogenesis, Diabetes and Mitochondria) (SABiosciences Corporation, Frederick, Md.). The arrays were amplified with real time PCR using the SYBR green detection methods using manufacturer approved protocols. The ct values from each of the samples were normalized to three housekeeping genes and fold regulation of Q10 treated groups was compared to time matched controls from cells grown in regular media was calculated.
(§6) The experiments described in this example were performed to test the overall hypothesis that Q10 would have an impact on expression of multiple genes in Ewing's sarcoma cells. The mRNA from NCIES0808 cells treated with 50 μM or 100 μM Q10 for various times was evaluated by RT-PCR against a panel of target proteins involved in human diabetes, human angiogenesis or human mitochondrial pathways.
(§7) Ct values obtained from a real time thermocycler were loaded onto the analysis tool on the SABiosciences website for calculation of fold regulation compared to cells with media. The genes that are included in the tables below are those that show a p value of close to 0.05.

NCIES0808 cells [3] = experiment: Real-time PCR, Human Angiogenesis Arrays; format: cell-based; conditions: 100 uM Q10
Protocol: as §5, §6, §7

[4] = cited from earlier work
skin cancer cells = conditions: culture of skin cancer cells but not normal cells; cited from earlier work

Coenzyme Q10 [CoQ10]
Indication of Early apoptosis (Bcl-2, annexin V, or caspase activation) [1]: None
Indication of Early apoptosis (Bcl-2, annexin V, or caspase activation) (MCF-7; BREAST: MCF-7): Strong
Minimal CoQ10 Concentration required for induction of early apoptosis (MCF-7; MCF-7): 50 µM
Treatment Time required for induction of early apoptosis (MCF-7; MCF-7): 48 h
Pattern of regulation, FOXP3 mRNA (NCIES0808 cells [2]; 6 hours, 50 uM Q10): Upregulation at 6 hours with 50 uM and 100 uM Q10.
Pattern of regulation, FOXP3 mRNA (NCIES0808 cells [2]; 6 hours, 100 uM Q10): Upregulation at 6 hours with 50 uM and 100 uM Q10.
Pattern of regulation, GCGR mRNA (NCIES0808 cells [2]; 6 hours, 100 uM Q10): Upregulation at 6 hours with 100 uM Q10.
Pattern of regulation, GPD1 mRNA (NCIES0808 cells [2]; 6 hours, 100 uM Q10): Upregulation at 6 hours with 100 uM Q10.
Pattern of regulation, INPPL1 mRNA (NCIES0808 cells [2]; 6 hours, 100 uM Q10): Upregulation at 6 hours with 100 uM Q10.
Pattern of regulation, IRS2 mRNA (NCIES0808 cells [2]; 6 hours, 100 uM Q10): Upregulation at 6 hours with 100 uM Q10.
Pattern of regulation, ADRB mRNA (NCIES0808 cells [2]; 24 hours, 100 uM Q10): Upregulation at 24 hours with 100 uM Q10.
Pattern of regulation, DUSP4 mRNA (NCIES0808 cells [2]; 24 hours, 100 uM Q10): Upregulation at 24 hours with 100 uM Q10.
Pattern of regulation, FOX C2 mRNA (NCIES0808 cells [2]; 24 hours, 100 uM Q10): Upregulation at 24 hours with 100 uM Q10
Pattern of regulation, HMOX1 mRNA (NCIES0808 cells [2]; 24 hours, 100 uM Q10): Upregulation at 24 and 48 hours with 100 uM Q10.
Pattern of regulation, VEGFA mRNA (NCIES0808 cells [2]; 24 hours, 100 uM Q10): Upregulation at 24 hours with 100 uM Q10 and 48 hours
Pattern of regulation, VEGFA mRNA (NCIES0808 cells [2]; 48 hours, 50 uM Q10): Upregulation at 24 hours with 100 uM Q10 and 48 hours
Pattern of regulation, CEACAM1 mRNA (NCIES0808 cells [2]; 48 hours, 100 uM Q10): Upregulation at 48 hours with 100 uM Q10.
Pattern of regulation, HMOX1 mRNA (NCIES0808 cells [2]; 48 hours, 100 uM Q10): Upregulation at 24 and 48 hours with 100 uM Q10.
Pattern of regulation, IL4R mRNA (NCIES0808 cells [2]; 48 hours, 100 uM Q10): Upregulation at 48 hours with 100 uM Q10.
Pattern of regulation, ANGPTL3 mRNA (NCIES0808 cells [3]; 3 hours): Down regulation at 3 hours with 100 uM Q10.
Pattern of regulation, CCL2 mRNA (NCIES0808 cells [3]; 3 hours): Down regulation at 3 hours with 100 uM Q10.
Pattern of regulation, CDH5 mRNA (NCIES0808 cells [3]; 3 hours): Down regulation at 3 and 24 hours with 100 uM Q10.
Pattern of regulation, CXCL1 mRNA (NCIES0808 cells [3]; 3 hours): Down regulation at 3 hours with 100 uM Q10
Pattern of regulation, CXCL3 mRNA (NCIES0808 cells [3]; 3 hours): Down regulation at 3 hours with 100 uM Q10.
Pattern of regulation, LAMA5 mRNA (NCIES0808 cells [3]; 6 hours): Up regulation at 6 hours with 100 uM Q10.
Pattern of regulation, CDH5 mRNA (NCIES0808 cells [3]; 24 hours): Down regulation at 3 and 24 hours with 100 uM Q10.
Pattern of regulation, PXLDC1 mRNA (NCIES0808 cells [3]; 48 hours): Up regulation at 48 hours with 100 uM Q10.
Share of CoQ10 in the reduced form ([4]; blood (plasma)): ~96%
Share of CoQ10 in the reduced form ([4]; heart): about 61%
Share of CoQ10 in the reduced form ([4]; intenstine): ~95%
Share of CoQ10 in the reduced form ([4]; kidney): ~75%
Share of CoQ10 in the reduced form ([4]; liver): ~95%
Share of CoQ10 in the reduced form ([4]; muscle): ~65%
Rate of apoptosis (skin cancer cells): increase the rate of apoptosis

From US20130266557A1, “METHODS FOR TREATMENT OF A SARCOMA USING AN EPIMETABOLIC SHIFTER (COENZYME Q10)” (priority 2009, published 2013)
